Experiments:
[1] = tested on: HEL; test: cells; conditions: Homo sapiens, 72 h
[2] = Antiproliferative activity against mouse BaF3 cells assessed as inhibition of cell proliferation incubated for 72 hrs by XTT assay; format: toxicity, cell-based
[3] = tested on: BaF3; test: Antiproliferative activity against mouse BaF3 cells harboring JAK2 V617F mutant assessed as inhibition of cell proliferation incubated for 72 hrs by XTT assay; format: toxicity, cell-based; conditions: BaF3, 72 h
[4] = tested on: HCT-116; test: Antitumor activity against human HCT-116 cells xenografted in Balb/c mouse assessed as tumor growth inhibition at 20 mg/kg relative to control; format: functional; conditions: read-out: TGI
[5] = tested on: HCT-116; test: Antitumor activity against human HCT-116 cells xenografted in Balb/c mouse assessed as tumor growth inhibition at 15 mg/kg relative to control; format: functional; conditions: read-out: TGI
[6] = molecular target: T1, Tyrosine-protein kinase JAK1 (Homo sapiens, UniProt P23458); test: Competitive inhibition of JAK1 (unknown origin) in the presence of ATP
[7] = molecular target: T2, Tyrosine-protein kinase JAK2 (Homo sapiens, UniProt O60674); test: Competitive inhibition of JAK2 (unknown origin) in the presence of ATP
[8] = tested on: U-266; test: Antiproliferative activity against human U266B1 cells assessed as inhibition of cell proliferation; format: functional, cell-based
[9] = molecular target: T3, Non-receptor tyrosine-protein kinase TYK2 (Homo sapiens, UniProt P29597); test: Inhibition of recombinant human TYK2 (870 to 1187 residues)
[10] = molecular target: T4, Tyrosine-protein kinase JAK3 (Homo sapiens, UniProt P52333); test: Inhibition of recombinant human JAK3 (781 to 1124 residues)
T4 sequence (P52333 whole entry): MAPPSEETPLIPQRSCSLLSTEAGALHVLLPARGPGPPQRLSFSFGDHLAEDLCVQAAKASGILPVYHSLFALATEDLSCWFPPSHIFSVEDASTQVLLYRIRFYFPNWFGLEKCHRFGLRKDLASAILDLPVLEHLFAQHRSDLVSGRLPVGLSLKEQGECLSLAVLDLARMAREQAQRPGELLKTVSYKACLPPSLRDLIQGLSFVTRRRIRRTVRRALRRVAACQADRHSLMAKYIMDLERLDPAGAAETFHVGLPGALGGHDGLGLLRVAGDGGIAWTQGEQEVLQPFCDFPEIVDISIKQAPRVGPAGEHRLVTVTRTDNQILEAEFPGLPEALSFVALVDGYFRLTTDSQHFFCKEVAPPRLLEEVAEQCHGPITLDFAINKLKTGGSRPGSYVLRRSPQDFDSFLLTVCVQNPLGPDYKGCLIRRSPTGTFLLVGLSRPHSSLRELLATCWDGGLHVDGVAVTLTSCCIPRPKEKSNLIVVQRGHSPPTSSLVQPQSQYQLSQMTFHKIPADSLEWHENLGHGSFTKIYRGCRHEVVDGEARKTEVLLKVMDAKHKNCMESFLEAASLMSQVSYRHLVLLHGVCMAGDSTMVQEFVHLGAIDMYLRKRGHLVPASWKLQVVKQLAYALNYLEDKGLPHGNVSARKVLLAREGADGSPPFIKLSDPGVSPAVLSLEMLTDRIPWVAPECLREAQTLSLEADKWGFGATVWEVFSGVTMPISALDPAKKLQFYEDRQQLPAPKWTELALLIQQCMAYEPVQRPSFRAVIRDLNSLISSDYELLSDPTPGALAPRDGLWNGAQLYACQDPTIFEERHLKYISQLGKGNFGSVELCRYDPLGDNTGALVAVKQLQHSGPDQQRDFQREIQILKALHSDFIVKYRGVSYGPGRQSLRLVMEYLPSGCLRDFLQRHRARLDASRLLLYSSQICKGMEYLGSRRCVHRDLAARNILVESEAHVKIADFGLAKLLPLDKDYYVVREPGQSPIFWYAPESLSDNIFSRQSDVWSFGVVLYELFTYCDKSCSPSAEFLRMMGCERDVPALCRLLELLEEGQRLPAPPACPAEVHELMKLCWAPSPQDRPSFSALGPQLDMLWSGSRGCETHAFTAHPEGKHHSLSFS

[11] = molecular target: T3, Non-receptor tyrosine-protein kinase TYK2; test: Inhibition of TYK2 (unknown origin)
[12] = Inhibition of STAT5 phosphorylation in mouse BaF3 cells expressing JAK2 V617F mutant incubated for 5 hrs by Alphascreen SureFire assay; format: cell-based; conditions: BaF3, 5 h
[13] = molecular target: T4, Tyrosine-protein kinase JAK3; test: Inhibition of JAK3 (unknown origin) by Lanthascreen kinase assay
[14] = molecular target: Tyrosine-protein kinase JAK2 (Mus musculus, UniProt Q62120); test: Inhibition of IL-3 stimulated wild type JAK2-mediated signalling in mouse BaF3 cells preincubated with compound for 5 hrs followed by IL-3 stimulation and measured after 20 mins by Alphascreen SureFire assay; format: cell-based
[15] = tested on: BaF3; test: Inhibition of cell proliferation in IL-3 stimulated mouse BaF3 cells expressing wild-type JAK2; format: toxicity, cell-based
[16] = tested on: BaF3; test: Inhibition of cell proliferation in mouse BaF3 cells expressing JAK2 V617F mutant; format: toxicity, cell-based
[17] = molecular target: Signal transducer and activator of transcription 3 (Homo sapiens, UniProt P40763); test: Inhibition of IL6-stimulated STAT3 signalling in human CD4+ T cells; format: cell-based, T cell
[18] = species on record: Homo sapiens; test: Selectivity index, ratio of IC50 for inhibition of JAK3 (unknown origin) to IC50 for inhibition of JAK1 (unknown origin)
[19] = molecular target: T2, Tyrosine-protein kinase JAK2; test: Inhibition of JAK2 (unknown origin)
[20] = species on record: Homo sapiens; test: Selectivity index, ratio of IC50 for inhibition of JAK2 (unknown origin) to IC50 for inhibition of JAK1 (unknown origin)
[21] = molecular target: T1, Tyrosine-protein kinase JAK1; test: Inhibition of JAK1 (unknown origin)
[22] = species on record: Homo sapiens; test: Selectivity index, ratio of IC50 for inhibition of TYK2 (unknown origin) to IC50 for inhibition of JAK1 (unknown origin)
[23] = molecular target: T4, Tyrosine-protein kinase JAK3; test: Inhibition of JAK3 (unknown origin)
[24] = Inhibition of T cell proliferation in Balb/c mouse spleenocytes by MLR assay; format: toxicity, cell-based; conditions: Splenocyte
[25] = Inhibition of STAT5 phosphorylation in IL-2 stimulated mouse HT-2 cells; format: cell-based; conditions: HT2
[26] = tested on: B cell; test: Inhibition of cell proliferation in CD40L/IL-4-induced human B cells; format: toxicity, cell-based
[27] = molecular target: T1, Tyrosine-protein kinase JAK1; test: Inhibition of JAK1 (unknown origin) assessed as inhibition constant
[28] = Inhibition of T cell proliferation in CBA mouse spleenocytes by MLR assay; format: toxicity, cell-based; conditions: Splenocyte
[29] = Inhibition of IL-2 stimulated human T cell proliferation; format: toxicity, cell-based
[30] = tested on: Rattus norvegicus; test: Antiarthritic activity in CFA-induced Lewis rat assessed as increase in hind paw volume at 1 mg/kg administered for 2 weeks by plethysmometer relative to control; format: functional
[31] = tested on: Rattus norvegicus; test: Antiarthritic activity in CFA-induced Lewis rat assessed as increase in hind paw volume at 3 to 10 mg/kg administered for 2 weeks by plethysmometer relative to control; format: functional; conditions: dose 3-10 mg/kg
[32] = molecular target: T2, Tyrosine-protein kinase JAK2; test: Inhibition of JAK2 (unknown origin) by Lanthascreen kinase assay
[33] = molecular target: T1, Tyrosine-protein kinase JAK1; test: Inhibition of human JAK1 kinase domain incubated for 1 hrs in the presence of ATP by spectrophotometric analysis
[34] = molecular target: T3, Non-receptor tyrosine-protein kinase TYK2; test: Inhibition of human TYK2 kinase domain incubated for 1 hrs in the presence of ATP by spectrophotometric analysis
[35] = tested on: BaF3; test: Antiproliferative activity against mouse BaF3 cells expressing TEL fused JAK2 incubated for 72 hrs by MTT assay; format: functional, cell-based; conditions: BaF3, 72 h
[36] = molecular target: T4, Tyrosine-protein kinase JAK3; test: Inhibition of human JAK3 kinase domain incubated for 1 hrs in the presence of ATP by spectrophotometric analysis
[37] = molecular target: T2, Tyrosine-protein kinase JAK2; test: Inhibition of human JAK2 kinase domain incubated for 1 hrs in the presence of ATP by spectrophotometric analysis
[38] = species on record: Homo sapiens; test: Selectivity index, ratio of IC50 for inhibition of human TYK2 kinase domain to IC50 for inhibition of human JAK2 kinase domain incubated for 1 hrs in the presence of ATP by spectrophotometric analysis
[39] = species on record: Homo sapiens; test: Selectivity index, ratio of IC50 for inhibition of human JAK1 kinase domain to IC50 for inhibition of human JAK2 kinase domain incubated for 1 hrs in the presence of ATP by spectrophotometric analysis
[40] = tested on: BaF3; test: Antiproliferative activity against mouse BaF3 cells harboring JAK2 V617F mutation incubated for 72 hrs by MTT assay; format: functional, cell-based; conditions: BaF3, 72 h
[41] = species on record: Homo sapiens; test: Selectivity index, ratio of IC50 for inhibition of human JAK3 kinase domain to IC50 for inhibition of human JAK2 kinase domain incubated for 1 hrs in the presence of ATP by spectrophotometric analysis
[42] = molecular target: Proto-oncogene tyrosine-protein kinase receptor Ret (Homo sapiens, UniProt P07949); test: Inhibition of RET (unknown origin)
Proto-oncogene tyrosine-protein kinase receptor Ret, sequence (P07949 whole entry): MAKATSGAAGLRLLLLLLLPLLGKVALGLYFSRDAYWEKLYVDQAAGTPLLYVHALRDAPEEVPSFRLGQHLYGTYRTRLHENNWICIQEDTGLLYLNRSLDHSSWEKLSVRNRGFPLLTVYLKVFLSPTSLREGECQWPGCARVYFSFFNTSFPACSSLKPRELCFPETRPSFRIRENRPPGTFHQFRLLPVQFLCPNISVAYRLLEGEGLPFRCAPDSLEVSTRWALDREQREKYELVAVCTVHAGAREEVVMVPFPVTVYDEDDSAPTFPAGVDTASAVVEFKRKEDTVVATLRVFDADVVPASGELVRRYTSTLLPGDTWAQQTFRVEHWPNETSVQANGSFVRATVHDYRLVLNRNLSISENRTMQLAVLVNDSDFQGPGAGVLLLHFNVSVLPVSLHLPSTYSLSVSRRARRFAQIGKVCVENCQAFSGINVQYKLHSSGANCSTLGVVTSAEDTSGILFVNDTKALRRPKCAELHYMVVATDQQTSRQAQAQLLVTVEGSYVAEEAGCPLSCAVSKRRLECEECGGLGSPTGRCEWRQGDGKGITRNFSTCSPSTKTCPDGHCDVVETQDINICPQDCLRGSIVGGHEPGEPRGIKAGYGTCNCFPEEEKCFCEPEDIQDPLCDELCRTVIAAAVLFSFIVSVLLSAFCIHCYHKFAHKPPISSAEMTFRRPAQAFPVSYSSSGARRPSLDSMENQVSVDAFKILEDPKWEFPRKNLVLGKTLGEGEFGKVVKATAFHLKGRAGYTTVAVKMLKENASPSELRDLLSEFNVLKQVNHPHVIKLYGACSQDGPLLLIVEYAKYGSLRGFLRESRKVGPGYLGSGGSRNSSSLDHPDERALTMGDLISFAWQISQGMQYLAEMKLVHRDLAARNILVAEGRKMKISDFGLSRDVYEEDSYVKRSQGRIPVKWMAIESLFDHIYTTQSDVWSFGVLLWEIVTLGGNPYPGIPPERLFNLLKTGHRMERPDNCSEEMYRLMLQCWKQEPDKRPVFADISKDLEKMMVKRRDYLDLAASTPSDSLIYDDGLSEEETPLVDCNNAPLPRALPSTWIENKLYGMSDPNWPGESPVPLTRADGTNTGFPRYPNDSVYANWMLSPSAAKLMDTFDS

T1 sequence (P23458 whole entry): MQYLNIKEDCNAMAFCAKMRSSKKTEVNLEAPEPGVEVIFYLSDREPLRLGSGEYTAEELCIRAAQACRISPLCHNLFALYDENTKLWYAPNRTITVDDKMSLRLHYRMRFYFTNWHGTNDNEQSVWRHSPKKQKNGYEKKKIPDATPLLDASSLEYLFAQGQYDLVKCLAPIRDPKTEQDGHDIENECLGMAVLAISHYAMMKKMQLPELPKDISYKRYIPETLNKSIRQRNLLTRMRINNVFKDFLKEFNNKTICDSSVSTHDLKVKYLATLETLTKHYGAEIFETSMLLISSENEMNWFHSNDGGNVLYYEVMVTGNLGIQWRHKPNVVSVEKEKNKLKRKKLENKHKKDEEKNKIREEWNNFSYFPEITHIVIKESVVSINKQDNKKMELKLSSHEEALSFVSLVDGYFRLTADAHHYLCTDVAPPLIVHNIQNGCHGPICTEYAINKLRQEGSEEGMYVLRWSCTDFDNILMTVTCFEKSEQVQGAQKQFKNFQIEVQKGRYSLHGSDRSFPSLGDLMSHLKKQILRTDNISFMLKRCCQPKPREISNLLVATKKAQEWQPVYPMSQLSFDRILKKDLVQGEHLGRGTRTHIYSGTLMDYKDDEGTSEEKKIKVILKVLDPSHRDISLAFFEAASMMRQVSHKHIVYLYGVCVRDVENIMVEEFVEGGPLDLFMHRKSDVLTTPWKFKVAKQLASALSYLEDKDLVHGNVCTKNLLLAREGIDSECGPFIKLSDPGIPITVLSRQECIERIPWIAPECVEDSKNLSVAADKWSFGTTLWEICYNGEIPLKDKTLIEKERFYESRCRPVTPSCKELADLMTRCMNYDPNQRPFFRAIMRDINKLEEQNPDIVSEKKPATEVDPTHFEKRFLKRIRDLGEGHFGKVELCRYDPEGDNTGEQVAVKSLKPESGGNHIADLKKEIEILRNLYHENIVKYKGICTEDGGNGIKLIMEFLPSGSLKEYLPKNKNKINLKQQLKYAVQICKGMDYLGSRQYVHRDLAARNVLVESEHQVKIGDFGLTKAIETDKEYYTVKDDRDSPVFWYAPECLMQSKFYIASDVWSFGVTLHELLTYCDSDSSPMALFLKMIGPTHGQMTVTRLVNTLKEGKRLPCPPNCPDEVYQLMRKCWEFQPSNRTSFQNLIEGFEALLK
T3 sequence (P29597 whole entry, the tested form may be a part): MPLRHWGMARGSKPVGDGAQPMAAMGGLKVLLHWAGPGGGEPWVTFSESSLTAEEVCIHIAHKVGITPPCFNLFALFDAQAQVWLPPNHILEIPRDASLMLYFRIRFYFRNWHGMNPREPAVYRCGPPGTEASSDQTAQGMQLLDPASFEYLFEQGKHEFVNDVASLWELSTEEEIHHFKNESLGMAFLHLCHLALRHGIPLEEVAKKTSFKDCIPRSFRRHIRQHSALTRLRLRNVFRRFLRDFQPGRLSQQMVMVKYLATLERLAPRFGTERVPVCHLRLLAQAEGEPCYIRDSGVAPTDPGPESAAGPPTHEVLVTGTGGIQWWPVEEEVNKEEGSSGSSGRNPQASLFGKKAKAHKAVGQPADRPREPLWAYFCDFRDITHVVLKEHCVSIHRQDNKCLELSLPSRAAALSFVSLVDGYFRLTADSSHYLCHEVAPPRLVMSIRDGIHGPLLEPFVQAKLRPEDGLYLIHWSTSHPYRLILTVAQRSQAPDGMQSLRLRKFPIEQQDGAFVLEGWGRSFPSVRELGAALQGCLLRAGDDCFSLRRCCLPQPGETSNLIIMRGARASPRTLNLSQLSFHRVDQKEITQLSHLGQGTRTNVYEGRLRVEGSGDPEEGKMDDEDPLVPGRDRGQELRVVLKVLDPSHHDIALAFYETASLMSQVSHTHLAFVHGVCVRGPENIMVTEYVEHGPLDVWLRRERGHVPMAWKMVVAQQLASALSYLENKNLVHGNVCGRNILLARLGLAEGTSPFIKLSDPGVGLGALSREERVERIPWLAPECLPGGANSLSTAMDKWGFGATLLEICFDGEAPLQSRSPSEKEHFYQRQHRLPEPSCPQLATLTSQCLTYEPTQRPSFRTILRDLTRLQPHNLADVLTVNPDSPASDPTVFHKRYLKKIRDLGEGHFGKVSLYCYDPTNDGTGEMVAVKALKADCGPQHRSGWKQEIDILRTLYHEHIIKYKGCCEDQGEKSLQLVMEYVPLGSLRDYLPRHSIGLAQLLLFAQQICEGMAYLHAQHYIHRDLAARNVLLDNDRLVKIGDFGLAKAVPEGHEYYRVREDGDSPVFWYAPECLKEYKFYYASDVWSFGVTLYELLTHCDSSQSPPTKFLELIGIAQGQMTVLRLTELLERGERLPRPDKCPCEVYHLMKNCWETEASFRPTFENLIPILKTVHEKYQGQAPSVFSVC
T2 sequence (O60674 whole entry): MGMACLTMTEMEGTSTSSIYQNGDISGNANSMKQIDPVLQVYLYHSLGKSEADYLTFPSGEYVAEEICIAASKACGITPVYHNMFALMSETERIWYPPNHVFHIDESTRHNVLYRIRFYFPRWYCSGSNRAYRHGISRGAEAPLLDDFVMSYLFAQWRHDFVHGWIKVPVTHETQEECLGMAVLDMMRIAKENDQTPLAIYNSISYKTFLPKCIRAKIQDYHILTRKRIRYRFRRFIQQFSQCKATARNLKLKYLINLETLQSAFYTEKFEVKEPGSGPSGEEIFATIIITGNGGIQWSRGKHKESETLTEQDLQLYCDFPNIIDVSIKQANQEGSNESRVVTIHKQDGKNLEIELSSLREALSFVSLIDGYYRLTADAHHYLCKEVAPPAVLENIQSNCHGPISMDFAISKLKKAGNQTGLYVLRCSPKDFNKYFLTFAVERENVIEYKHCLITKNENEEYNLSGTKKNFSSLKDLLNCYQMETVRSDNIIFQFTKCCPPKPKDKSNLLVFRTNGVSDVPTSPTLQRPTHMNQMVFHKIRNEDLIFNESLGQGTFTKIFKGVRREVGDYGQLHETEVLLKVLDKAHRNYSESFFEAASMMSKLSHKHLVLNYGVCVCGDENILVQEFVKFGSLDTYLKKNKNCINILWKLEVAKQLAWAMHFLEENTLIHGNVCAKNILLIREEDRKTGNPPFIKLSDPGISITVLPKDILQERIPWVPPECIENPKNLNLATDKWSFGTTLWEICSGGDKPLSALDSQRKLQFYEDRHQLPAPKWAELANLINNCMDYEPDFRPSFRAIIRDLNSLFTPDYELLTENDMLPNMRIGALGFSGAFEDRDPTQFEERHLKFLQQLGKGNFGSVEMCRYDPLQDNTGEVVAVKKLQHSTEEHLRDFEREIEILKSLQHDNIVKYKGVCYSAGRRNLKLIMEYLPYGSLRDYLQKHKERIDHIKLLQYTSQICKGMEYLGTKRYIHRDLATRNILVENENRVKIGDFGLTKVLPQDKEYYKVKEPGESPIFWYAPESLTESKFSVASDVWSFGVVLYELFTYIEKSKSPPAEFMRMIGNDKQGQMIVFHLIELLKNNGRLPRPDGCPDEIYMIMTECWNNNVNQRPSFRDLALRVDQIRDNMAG

Compound: Cc1cnc(Nc2ccc(OCCN3CCCC3)cc2)nc1Nc1cccc(S(=O)(=O)NC(C)(C)C)c1 [FEDRATINIB]
- IC50 [1]: 0.305 µM
- IC50 at 72 h [2]: 0.42 µM
- IC50 [3]: 0.27 µM

Compound: O=C(Nc1c[nH]nc1-c1nc2ccc(CN3CCOCC3)cc2[nH]1)NC1CC1 [AT-9283]
- inhibition in vivo at 20 mg/kg [4]: 76%
- inhibition in vivo at 15 mg/kg [5]: 67%

Compound: Cc1cc(Nc2nc(N[C@@H](C)c3ncc(F)cn3)ncc2Cl)n[nH]1 [AZD-1480]
- IC50 [6]: 0.0013 µM
- IC50 [7]: 0.0004 µM

Compound: CC(C)(C)c1nc2c3ccc(F)cc3c3c(=O)[nH]ccc3c2[nH]1
- IC50 [8]: 0.25 µM

Compound: CNS(=O)(=O)C[C@H]1CC[C@H](N(C)c2ncnc3[nH]ccc23)CC1 [OCLACITINIB]
- IC50 [9]: 0.084 µM
- IC50 [10]: 0.099 µM

Compound: Cc1cc(Nc2cc(CN3CCOCC3)c3nc(C)c(Cc4ccc(Cl)cc4F)n3n2)n[nH]1 [GANDOTINIB]
- IC50 [11]: 0.044 µM
- IC50 [12]: 0.02 µM
- IC50 [13]: 0.048 µM
- IC50 [14]: 1.18 µM
- IC50 [15]: 1.31 µM
- IC50 [16]: 0.055 µM

Compound: CN(C)C(=O)/C(C#N)=C/c1ccc(-c2nc3cnc4[nH]ccc4c3n2C2CCCCC2)o1
- IC50 [17]: 1 µM

Compound: CC1(C)CN(C(=O)c2ccc(-c3cccc4nc(NC(=O)C5CC5)nn34)cc2)C1 [SOLCITINIB]
- Ratio IC50 [18]: 55
- IC50 [11]: 0.225 µM
- IC50 [19]: 0.108 µM
- Ratio IC50 [20]: 11
- IC50 [21]: 0.0098 µM
- Ratio IC50 [22]: 23
- IC50 [23]: 0.539 µM

Compound: CC[C@@](C)(Nc1ccnc(-c2c[nH]c3ncccc23)n1)C(=O)NCC(F)(F)F [DECERNOTINIB]
- IC50 [24]: 0.05 µM
- IC50 [25]: 0.05 µM
- IC50 [26]: 0.05 µM
- Ki [27]: 0.011 µM
- IC50 [28]: 0.05 µM
- IC50 [29]: 0.05 µM

Compound: CCS(=O)(=O)N1CC(CC#N)(n2cc(-c3ncnc4[nH]ccc34)cn2)C1 [BARICITINIB]
- Activity [30]: 50%
- Activity [31]: >95%

Compound: Cc1cc(Nc2ccc3nc(C)n([C@@H]4CCc5ccc(F)cc54)c3c2)[nH]n1
- IC50 [13]: 0.008 µM
- IC50 [32]: 0.002 µM

Compound: C[C@H](Nc1cc(-c2cnn(C)c2)cc(Nc2cnccn2)n1)c1ccc(F)cc1 [NS-018]
- IC50 [33]: 0.033 µM
- IC50 [34]: 0.022 µM
- IC50 [35]: 0.011 µM
- IC50 [36]: 0.039 µM
- IC50 [37]: 0.00072 µM
- Ratio IC50 [38]: 31
- Ratio IC50 [39]: 46
- IC50 [40]: 0.011 µM
- Ratio IC50 [41]: 54

Compound: N#CCC1(n2cc(-c3ncnc4[nH]ccc34)cn2)CN(C2CCN(C(=O)c3ccnc(C(F)(F)F)c3F)CC2)C1 [ITACITINIB]
- Ratio IC50 [18]: > 100
- IC50 [11]: 0.795 µM
- IC50 [19]: 0.063 µM
- Ratio IC50 [20]: > 20
- IC50 [21]: 0.002 µM
- Ratio IC50 [22]: > 100
- IC50 [23]: 2 µM

Compound: Cc1cnc(Nc2ccc(N3CCN(C)CC3)cc2)nc1Nc1cccc(S(=O)(=O)NC(C)(C)C)c1
- IC50 [42]: 0.017 µM

Reference: ChEMBL document CHEMBL5244234, “Janus kinases (JAKs): The efficient therapeutic targets for autoimmune diseases and myeloproliferative disorders” (Eur J Med Chem, 2020)
